From ChEMBL document CHEMBL1201862, “PubChem BioAssay data set” (2004)
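Assay format: 96-well plates, 48-hour exposure. The concentration for 50% growth inhibition is given as GI50.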 Active and inactive are the calls of the source. Rule as the data show it: active = GI50 up to about 1.1 µM and inactive = higher.

How the values were obtained:
Assay in all cases: growth of human tumour cells (NCI), 48 h
[1] = system: 786-0
[2] = system: A498
[3] = system: EKVX
[4] = system: Hs-578T
[5] = system: MCF7
[6] = system: MOLT-4
[7] = system: NCI-H460
[8] = system: NCI-H522
[9] = system: NCI/ADR-RES
[10] = system: PC-3
[11] = system: RXF 393
[12] = system: SF-268
[13] = system: SK-MEL-2
[14] = system: SK-OV-3
[15] = system: SNB-19
[16] = system: SR
[17] = system: T47D
[18] = system: U-251
[19] = system: UACC-257
[20] = system: UO-31

Measured: GI50

C=CC1(C)OC2(CCN(C(=O)OCC)CC2)OC1C (stereo not given)
inactive: [1] > 100 µM | [2] > 100 µM | [3] > 100 µM | [4] > 100 µM | [5] > 100 µM | [6] 34.8 µM | [7] > 100 µM | [8] > 100 µM | [9] > 100 µM | [10] > 100 µM | [11] > 100 µM | [12] > 100 µM | [13] > 100 µM | [14] > 100 µM | [15] > 100 µM | [16] > 100 µM | [17] > 100 µM | [18] > 100 µM | [19] > 100 µM | [20] > 100 µM

O=C(NC(OCc1ccccc1)(C(F)(F)F)C(F)(F)F)OCc1ccccc1
inactive: [1] 16.5 µM | [2] 17.7 µM | [3] 15.2 µM | [4] 13.9 µM | [5] 16.4 µM | [6] 18.1 µM | [7] 16.1 µM | [8] 13.6 µM | [9] 12.6 µM | [10] 13.8 µM | [11] 12.5 µM | [12] 18.2 µM | [13] 15.3 µM | [14] 17.5 µM | [15] 15.8 µM | [16] 12 µM | [17] 15.7 µM | [18] 14.1 µM | [19] 14.2 µM | [20] 11.2 µM

S=C1C(CCCOCc2ccccc2)C2CCCC23CC2(CCN13)OCCS2 (stereo not given)
inactive: [1] > 10 µM | [2] > 10 µM | [3] > 10 µM | [4] > 10 µM | [5] > 10 µM | [6] > 10 µM | [7] > 10 µM | [8] > 10 µM | [9] > 10 µM | [10] > 10 µM | [11] > 10 µM | [12] > 10 µM | [13] > 10 µM | [14] > 10 µM | [15] > 10 µM | [16] > 10 µM | [17] > 10 µM | [18] > 10 µM | [19] > 10 µM | [20] > 10 µM

CN(CCC#N)c1ccc(/C=C2\SC(=S)NC2=O)cc1
inactive: [1] 34.8 µM | [2] 30.1 µM | [3] > 100 µM | [4] 33.3 µM | [5] 46.6 µM | [6] 42 µM | [7] 25.9 µM | [8] 71.1 µM | [9] > 100 µM | [10] 34.3 µM | [11] 23.6 µM | [12] 63.1 µM | [13] 35 µM | [14] 71.9 µM | [15] 71 µM | [16] 24.3 µM | [17] 51.2 µM | [18] 32.8 µM | [19] > 100 µM | [20] 27.2 µM

C=CCN(c1cc(OC)c2[nH]c(C(=O)O)c(C)c2c1[N+](=O)[O-])S(C)(=O)=O
inactive: [1] > 100 µM | [2] > 100 µM | [3] > 100 µM | [4] > 100 µM | [5] > 100 µM | [6] > 100 µM | [7] > 100 µM | [8] 10 µM | [9] > 100 µM | [10] > 100 µM | [11] > 100 µM | [12] > 100 µM | [13] > 100 µM | [14] > 100 µM | [15] > 100 µM | [16] > 100 µM | [17] > 100 µM | [18] > 100 µM | [19] > 100 µM | [20] > 100 µM

Cc1sc2nc3n(c(=O)c2c1C)N=CN(c1ccc(F)cc1)C3
inactive: [1] 19.5 µM | [2] 26.9 µM | [3] > 100 µM | [4] 22.4 µM | [5] > 100 µM | [6] > 100 µM | [7] 44.5 µM | [8] 69.3 µM | [9] > 100 µM | [10] > 100 µM | [11] > 100 µM | [12] 81.7 µM | [13] > 100 µM | [14] 52 µM | [15] 38 µM | [16] > 100 µM | [17] > 100 µM | [18] 50.1 µM | [19] > 100 µM | [20] > 100 µM

CN1C(=O)c2ccccc2OC12C=Cc1c(ccc3ccccc13)O2 (stereo not given)
active: [8] 0.682 µM
inactive: [1] 7.19 µM | [2] 12.9 µM | [3] 2.32 µM | [4] 3.85 µM | [5] 4.4 µM | [6] 3.53 µM | [7] 6.59 µM | [9] 2.38 µM | [10] 3.27 µM | [11] 3.85 µM | [12] 3.78 µM | [13] 3.34 µM | [14] 5.78 µM | [15] 4.49 µM | [16] 3.48 µM | [17] 5.43 µM | [18] 3.42 µM | [19] 8.3 µM | [20] 6.52 µM

CCOC(NC(=O)CC)(C(F)(F)F)C(F)(F)F
active: [11] 0.145 µM
inactive: [1] > 100 µM | [2] > 100 µM | [3] > 100 µM | [4] > 100 µM | [5] > 100 µM | [6] > 100 µM | [7] > 100 µM | [8] > 100 µM | [9] > 100 µM | [10] > 100 µM | [12] > 100 µM | [13] > 100 µM | [14] > 100 µM | [15] > 100 µM | [16] > 100 µM | [17] > 100 µM | [18] > 100 µM | [19] > 100 µM | [20] > 100 µM

CN(C)c1nc2nonc2nc1Nc1ccccc1
inactive: [1] > 100 µM | [2] > 100 µM | [3] > 100 µM | [4] > 100 µM | [5] > 100 µM | [6] > 100 µM | [7] > 100 µM | [8] > 100 µM | [9] > 100 µM | [10] > 100 µM | [11] > 100 µM | [12] > 100 µM | [13] > 100 µM | [14] > 100 µM | [15] > 100 µM | [16] > 100 µM | [17] > 100 µM | [18] > 100 µM | [19] > 100 µM | [20] > 100 µM

CCOC(=O)c1ccc2c(=O)n3c(C(=O)OCC)ccc3c(=O)n12
inactive: [1] > 100 µM | [2] > 100 µM | [3] > 100 µM | [4] > 100 µM | [5] > 100 µM | [6] > 100 µM | [7] > 100 µM | [8] 60.7 µM | [9] > 100 µM | [10] > 100 µM | [11] > 100 µM | [12] > 100 µM | [13] > 100 µM | [14] 68.2 µM | [15] > 100 µM | [16] > 100 µM | [17] > 100 µM | [18] > 100 µM | [19] > 100 µM | [20] > 100 µM
